Consider 15 molecules from patent US20250197373A1, “SMALL MOLECULE COMPOUND OR SALT THEREOF OR SOLVATE OF THEM, GUANINE NUCLEOTIDE-BINDING PROTEIN G(Q) SUBUNIT ALPHA (GNAQ) INHIBITOR CONTAINING THE SAME AND METHOD FOR TREATING AND/OR PREVENTING CANCER” (INDUSTRIAL TECHNOLOGY RESEARCH INSTITUTE, priority 2023, published 2025).

One test has as its system MDA-MB-231. The test can be described thus: Inhibition of growth of triple-negative breast cancer cells MDA-MB-231 (PrestoBlue). It counts as cell-based. The note with it: Homo sapiens, 168 h, 7 days culture, 2% fetal bovine serum, read-out: Inhibitory activity (evaluated by IC50). The procedure:
Triple-negative breast cancer cells, MDA-MB-231 and MDA-MB-231-OE-GNAQ (T96S) (additionally expressing GNAQ (T96S)) were cultured in L-15 medium and in a temperature-controlled incubator without need of additional offer of 5% carbon dioxide.
1×10^3 of the cells mentioned above were seeded in a 96-well plate, placed in a temperature-controlled incubator and cultured overnight (at least 16 hours).
After overnight incubation, the supernatant was removed. Next, after 200 μL of cell culture medium (containing 2% fetal bovine serum) containing different concentrations of test compound was added to each well of the 96-well plate, the 96-well plate was placed in a 37° C. incubator for 7 days further culture. After that, an additional 30 μL of diluted PrestoBlue™ Cell Viability Reagent (Catalog Number: A13261; Thermo Fisher Scientific) (4 μL stock solution and 26 μL culture medium) was added to each well of the 96-well plate and the reaction was continued for further about 1 hour.
Finally, the fluorescence value at the wavelength of 535/615 nm of each well was read with a plate enzyme immunoassay analyzer, and the inhibitory rate of the compound on triple-negative breast cancer cells were calculated using the following formula.
Moreover, the half maximal inhibitory concentration (IC50) of the compound on the growth of triple-negative breast cancer cells was calculated with the inhibitory rate of compound on triple-negative breast cancer cells at each concentration through the online half maximal inhibitory concentration (IC50) calculation software, IC50 Calculator, provided by AAT Bioquest company on its website (https://www.aatbio.com/tools/ic50-calculator).
Finally, the inhibition of the compound on the growth of triple-negative breast cancer cells was evaluated by the calculated half maximal inhibitory concentration (IC50) of the compound on the growth of triple-negative breast cancer cells.
The inhibition of the compound on the growth of triple-negative breast cancer cells was evaluated by the half maximal inhibitory concentration (IC50) of the compound (one of Compound 1 to Compound 15 prepared above) on the growth of triple-negative breast cancer cells through the human triple-negative breast cancer cell lines MDA-MB-231 and MDA-MB-231-OE-GNAQ (T96S) (additionally expressing GNAQ (T96S)).

In the next test the test system is MCF-7 GNAQ (T96S) cells. The test can be described thus: Inhibition of growth of mammary gland cancer cells MCF-7 GNAQ (T96S) (PrestoBlue). The note with it: Homo sapiens, MCF7, 168 h, 7 days culture, 2% fetal bovine serum, read-out: Inhibitory activity (evaluated by IC50). It counts as cell-based. On the procedure: Human mammary gland cancer cells, MCF-7 cells and MCF-7 GNAQ (T96S) cells (MCF-7 cells expressing GNAQ (T96S) after GNAQ gene deletion) were cultured in MEM medium.
1×10^3 of the cells mentioned above were seeded in a 96-well plate and cultured overnight (at least 16 hours) in a carbon dioxide incubator.
After overnight incubation, the supernatant was removed. Next, after 200 μL of cell culture medium (containing 2% fetal bovine serum) containing different concentrations of test compound was added to each well of the 96-well plate, the 96-well plate was placed in a 5% carbon dioxide incubator at 37° C. for 7 days further culture. After that, an additional 30 μL of diluted PrestoBlue™ Cell Viability Reagent (Catalog Number: A13261; Thermo Fisher Scientific) (4 μL stock solution and 26 μL culture medium) was added to each well of the 96-well plate and the reaction was continued for further about 1 hour.
Finally, the fluorescence value at the wavelength of 535/615 nm of each well was read with a plate enzyme immunoassay analyzer, and the inhibitory rate of the compound on mammary gland cancer cells were calculated using the following formula.
Moreover, the half maximal inhibitory concentration (IC50) of the compound on the growth of mammary gland cancer cells was calculated with the inhibitory rate of the compound on mammary gland cancer cells at each concentration through the online half maximal inhibitory concentration (IC50) calculation software, IC50 Calculator, provided by AAT Bioquest company on its website (https://www.aatbio.com/tools/ic50-calculator).
Finally, the inhibition of the compound on the growth of mammary gland cancer cells was evaluated by the calculated half maximal inhibitory concentration (IC50) of the compound on the growth of mammary gland cancer cells.
The inhibition of the compound on the growth of breast cancer cells was evaluated by the half maximal inhibitory concentration (IC50) of the compound (one of Compound 1 to Compound 15 prepared above) on the growth of mammary gland cancer cells through the human mammary gland cancer cell line MCF-7 and the human mammary gland cancer cell line MCF-7 GNAQ (T96S) expressing the mutated gene.

By IC50 is commonly meant the point on the concentration scale where inhibition reaches its midpoint. In the case of `O=C(Nc1cccc(-c2cc(-c3cccc(C(F)(F)F)c3)ncn2)c1)Nc1cc(Cl)nc(Cl)c1` [Compound 14], the IC50 is 310 to 2500 nM in the test with MDA-MB-231 and less than 310 nM with MCF-7 GNAQ (T96S) cells.

`O=C(Nc1cccc(-c2ccnc(-c3cccc(C(F)(F)F)c3)n2)c1)Nc1cc(Cl)nc(Cl)c1` [Compound 2]: the IC50 in the test with MDA-MB-231 and in the test with MCF-7 GNAQ (T96S) cells was 310 to 2500 nM throughout.

In the case of `O=C(Nc1ccc(-c2nc(-c3ccccc3)ncc2Cl)cc1)Nc1cc(Cl)nc(Cl)c1` [Compound 15], the 50% inhibitory concentration (IC50) was 310 to 2500 nM in the test with MDA-MB-231 and less than 310 nM in the test on MCF-7 GNAQ (T96S) cells.

On to `O=C(Nc1cccc(-c2cccc(-c3ccncc3)n2)c1)Nc1cc(Cl)nc(Cl)c1` [Compound 13], for which the IC50 in the test with MDA-MB-231 and in the test on MCF-7 GNAQ (T96S) cells was 310 to 2500 nM in each case.

For the molecule `O=C(Nc1ccc(-c2ccnc(-c3ccncc3)n2)cc1)Nc1ccc(Cl)c(C(F)(F)F)c1` [Compound 6], the IC50 was in the range of 2500 to 5000 nM in the test on MDA-MB-231 and 310 to 2500 nM in the test on MCF-7 GNAQ (T96S) cells.

`O=C(Nc1ccc(-c2cccc(-c3ccncc3)n2)cc1)Nc1ccc(Cl)c(C(F)(F)F)c1` [Compound 12]: the IC50 in the test with MDA-MB-231 and in the test with MCF-7 GNAQ (T96S) cells was 310 to 2500 nM throughout.

For the molecule `O=C(Nc1cccc(-c2ccnc(-c3ccc(F)c(F)c3)n2)c1)Nc1cc(Cl)nc(Cl)c1` [Compound 4], the IC50 in the test on MDA-MB-231 and in the test on MCF-7 GNAQ (T96S) cells was 310 to 2500 nM throughout.

As to `FC(F)(F)c1cccc(-c2cccc(-c3ccc(NC(=S)Nc4cc(Cl)nc(Cl)c4)cc3)n2)c1` [Compound 10], the IC50 with MDA-MB-231 and in the test on MCF-7 GNAQ (T96S) cells was 310 to 2500 nM throughout.

Consider `O=C(Nc1ccc(-c2ccnc(-c3cccc(C(F)(F)F)c3)n2)cc1)Nc1ccc(Cl)c(C(F)(F)F)c1` [Compound 8], for which the IC50 with MDA-MB-231 and in the test with MCF-7 GNAQ (T96S) cells was 310 to 2500 nM in each case.

For the molecule `N#Cc1cccc(-c2cccc(-c3ccc(NC(=S)Nc4cc(Cl)nc(Cl)c4)cc3)n2)c1` [Compound 11], the IC50 in the test on MDA-MB-231 and in the test on MCF-7 GNAQ (T96S) cells was 310 to 2500 nM throughout.

For `O=C(Nc1ccc(-c2cccc(-c3cccc(C(F)(F)F)c3)n2)cc1)Nc1cc(Cl)nc(Cl)c1` [Compound 9], the IC50 in the test on MDA-MB-231 and in the test on MCF-7 GNAQ (T96S) cells was 310 to 2500 nM in each case.

In the case of `N#Cc1cccc(-c2nccc(-c3cccc(NC(=O)Nc4cc(Cl)nc(Cl)c4)c3)n2)c1` [Compound 3], the IC50 in the test with MDA-MB-231 and in the test on MCF-7 GNAQ (T96S) cells was 310 to 2500 nM in each case.

In the case of `O=C(Nc1cccc(-c2ccnc(-c3cccc(C(F)(F)F)c3)n2)c1)c1cc(Cl)nc(Cl)c1` [Compound 5], the IC50 in the test on MDA-MB-231 and with MCF-7 GNAQ (T96S) cells was 310 to 2500 nM throughout.

For the molecule `O=C(Nc1cccc(-c2ccnc(-c3ccnc(Cl)c3)n2)c1)Nc1cc(Cl)nc(Cl)c1` [Compound 1], the IC50 with MDA-MB-231 and with MCF-7 GNAQ (T96S) cells was 310 to 2500 nM each time.

Regarding `O=C(Nc1ccc(-c2ccnc(-c3cccc(C(F)(F)F)c3)n2)cc1)Nc1cc(Cl)nc(Cl)c1` [Compound 7], the IC50 in the test on MDA-MB-231 and in the test on MCF-7 GNAQ (T96S) cells was 310 to 2500 nM in each case.
